Assays:
[1] = Microsomal metabolism stability, mouse; assay type: in vitro ADME; conditions: mouse liver microsomes 0.5 mg/mL, 1 μM, NADPH, 37° C.
Description: (§1) The microsomal metabolism stability of the test compound (Embodiment 6) in three species was determined. 1 μM test compound and microsomes (0.5 mg/mL) supplemented with NADPH regeneration system were incubated at 37° C. The positive controls were testosterone (3A4 substrate), propafenone (2D6 substrate) and diclofenac (2C9 substrate), respectively. The positive control and microsomes (0.5 mg/mL) supplemented with NADPH regeneration system were incubated at 37° C. Samples at different time points (0, 5, 10, 20, 30, and 60 minutes) were mixed directly with cold acetonitrile containing an internal standard to terminate the reaction. The compound and microsomes were incubated for 60 minutes without the NADPH regeneration system. One parallel was set at each time point (n=1). The samples were analyzed by LC/MS/MS. The concentration of the compound was indicated by the ratio of the peak area of the analyte to the peak area of the internal standard.

[2] = test system: HBV; assay: In vivo pharmacodynamic study of hydrodynamic injection mouse HBV model (HDI-HBV) via tail vein; parameters: species or system Balb/c mice; conditions: mouse plasma
Description: Anti-hepatitis B virus activity of the compound of the embodiment in vivo was evaluated by HDI mice model.
Balb/c mice, 10% HP—F-CD as vehicle, test compound, RG7834, ETV (Entecavir), pAAV2-HBV 1.3mer plasmid (extracted with Qiagen EndoFree Plasmid Giga kit), main reagents including QIAamp96 DNA kit and FasStart Universal Probe Mast (ROX). The main instruments used in this experiment included centrifuge (Beckman Allegra X-15R), tissue grinder (QIAGEN-Tissue lyser II) and spectrophotometer (Thermo-NANODROP 1000).
b) On day 0, all mice were subjected to hydrodynamic injection with HBV plasmid DNA solution via tail vein. The plasmid DNA was pre-treated with sterile physiological saline before injection and stored at 4° C. until use. Plasmid DNA solution was injected via the tail vein at a dose of 8% of the body weight of the mouse within 5 seconds.
c) On the 1st day to the 7th day, the mice were administered with the compound or solvent by oral gavage for 7 days.
d) On the 1st day, 3rd day and 5th day, the blood was collected from the submandibular vein of the mice, and heparin sodium was used as an anticoagulant. The blood sample was centrifuged at 7,000×g, 4° C. to prepare the plasma for the determination of HBV DNA.
e) On the 7^h day, all mice were euthanized by CO2. The blood was collected from the heart to prepare plasma, and the liver tissue was collected. Two left hepatic lobe were isolated, the size of which was 70-100 mg, and were frozen by liquid nitrogen immediately after collection. One of the hepatic lobe was used for HBV DNA detection, and the other was used for backup.
The content of HBsAg in the serum of the mice was determined by ELISA (enzyme linked immunosorbent assay). The experimental procedure refers to the specification of HBsAg ELISA kit.
The inhibitory activity of the test compound on HBV replication on the mouse HDI model was determined by measuring the content of HBsAg in the plasma of the mice.

[3] = target: T1, CYP1A2 (Homo sapiens, UniProt P05177); assay: Inhibition of cytochrome P450 isoenzyme in human liver microsomes; assay type: in vitro ADME
T1 construct: from tissue; host or cells: human liver microsomes
T1 sequence (P05177 1-516): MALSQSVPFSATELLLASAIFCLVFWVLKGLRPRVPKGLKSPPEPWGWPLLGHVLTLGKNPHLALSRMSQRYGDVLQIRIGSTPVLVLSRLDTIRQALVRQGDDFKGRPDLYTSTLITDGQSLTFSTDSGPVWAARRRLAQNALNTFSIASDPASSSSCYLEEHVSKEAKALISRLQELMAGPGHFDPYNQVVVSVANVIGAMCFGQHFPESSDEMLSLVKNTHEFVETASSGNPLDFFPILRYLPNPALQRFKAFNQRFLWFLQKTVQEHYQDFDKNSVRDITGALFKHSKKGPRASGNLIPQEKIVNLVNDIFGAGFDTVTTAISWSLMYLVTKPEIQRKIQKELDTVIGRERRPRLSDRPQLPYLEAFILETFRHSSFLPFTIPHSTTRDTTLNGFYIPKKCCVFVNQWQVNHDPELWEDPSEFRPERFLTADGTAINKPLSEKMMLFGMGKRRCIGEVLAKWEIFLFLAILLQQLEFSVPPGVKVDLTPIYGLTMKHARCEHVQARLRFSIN
Description: (§2) The inhibitory effect of the test compound on different subtypes of human cytochrome P450 isoenzyme was determined. Working solutions of the test compound, standard inhibitor (100×final concentration) and a mixed substrate were prepared. Microsomes frozen in a −80° C. refrigerator were thawed. 2 μL of test compound and the standard inhibitor solution were added into the corresponding wells, while 2 μL of the corresponding solvent was added into the non-inhibitor control well (NIC) and the blank control well (Blank). 20 μL of the mixed substrate solution was added into the corresponding wells except for the Blank well (20 μL of PB was added into the Blank well). Human liver microsomes solution was prepared (it was put back to the refrigerator immediately after use and the date was marked) and 158 μL of human liver microsomes solution were added into all of the wells immediately. The sample plate was pre-incubated under a 37° C. water bath, during which coenzyme factor (NADPH) solution was prepared immediately. After 10 minutes, 20 μL of coenzyme factor (NADPH) solution was added into all of the wells. After the sample plate was shaken evenly, it was incubated under a 37° C. water bath for 10 minutes. 400 μL of cold acetonitrile solution (the internal standard was 200 ng/mL Tolbutamide and Labetalol) was added to terminate the reaction at the corresponding time. After the sample plate was well-mixed, it was centrifuged at 4,000 rpm for 20 minutes to precipitate the protein. 200 μL of the supernatant was collected and added to 100 μL of water, and subjected to LC/MS/MS measurement after being shaken evenly.

[4] = target: T2, CYP2C9 (Homo sapiens, UniProt P11712); assay: as above; assay type: in vitro ADME
T2 construct: from tissue; host or cells: human liver microsomes
T2 sequence (P11712 whole entry): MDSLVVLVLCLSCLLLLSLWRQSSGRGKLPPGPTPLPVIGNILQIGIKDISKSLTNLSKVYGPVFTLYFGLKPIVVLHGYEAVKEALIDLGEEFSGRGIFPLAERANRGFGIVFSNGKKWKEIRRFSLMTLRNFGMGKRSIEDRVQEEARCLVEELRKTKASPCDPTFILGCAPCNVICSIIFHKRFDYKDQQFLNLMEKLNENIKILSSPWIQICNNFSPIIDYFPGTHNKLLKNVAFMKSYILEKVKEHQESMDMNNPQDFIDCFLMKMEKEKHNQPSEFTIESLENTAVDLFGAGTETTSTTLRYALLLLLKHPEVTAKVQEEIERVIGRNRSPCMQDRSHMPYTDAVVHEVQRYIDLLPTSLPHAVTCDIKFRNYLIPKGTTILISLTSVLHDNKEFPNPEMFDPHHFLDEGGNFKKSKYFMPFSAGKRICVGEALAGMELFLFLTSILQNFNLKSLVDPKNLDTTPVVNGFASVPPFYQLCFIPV
Description: as §2

[5] = target: T3, CYP2D6 (Homo sapiens, UniProt P10635); assay: as above; assay type: in vitro ADME
T3 construct: from tissue; host or cells: human liver microsomes
T3 sequence (P10635 whole entry): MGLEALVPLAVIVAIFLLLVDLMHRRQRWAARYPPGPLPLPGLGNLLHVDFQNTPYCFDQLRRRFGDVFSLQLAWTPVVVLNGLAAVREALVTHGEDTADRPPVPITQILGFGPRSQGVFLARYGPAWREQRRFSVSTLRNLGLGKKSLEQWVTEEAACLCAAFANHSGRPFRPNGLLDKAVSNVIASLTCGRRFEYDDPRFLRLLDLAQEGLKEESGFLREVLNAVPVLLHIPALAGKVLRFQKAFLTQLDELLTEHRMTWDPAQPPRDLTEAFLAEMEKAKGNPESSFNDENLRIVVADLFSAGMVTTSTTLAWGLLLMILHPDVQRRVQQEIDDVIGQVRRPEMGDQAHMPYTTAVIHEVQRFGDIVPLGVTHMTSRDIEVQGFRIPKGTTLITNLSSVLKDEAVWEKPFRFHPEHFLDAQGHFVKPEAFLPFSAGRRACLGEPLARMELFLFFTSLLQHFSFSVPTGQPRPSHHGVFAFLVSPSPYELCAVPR
Description: as §2

[6] = target: T4, CYP3A4-M (Homo sapiens, UniProt P08684); assay: as above; assay type: in vitro ADME
T4 construct: from tissue; host or cells: human liver microsomes
T4 sequence (P08684 whole entry): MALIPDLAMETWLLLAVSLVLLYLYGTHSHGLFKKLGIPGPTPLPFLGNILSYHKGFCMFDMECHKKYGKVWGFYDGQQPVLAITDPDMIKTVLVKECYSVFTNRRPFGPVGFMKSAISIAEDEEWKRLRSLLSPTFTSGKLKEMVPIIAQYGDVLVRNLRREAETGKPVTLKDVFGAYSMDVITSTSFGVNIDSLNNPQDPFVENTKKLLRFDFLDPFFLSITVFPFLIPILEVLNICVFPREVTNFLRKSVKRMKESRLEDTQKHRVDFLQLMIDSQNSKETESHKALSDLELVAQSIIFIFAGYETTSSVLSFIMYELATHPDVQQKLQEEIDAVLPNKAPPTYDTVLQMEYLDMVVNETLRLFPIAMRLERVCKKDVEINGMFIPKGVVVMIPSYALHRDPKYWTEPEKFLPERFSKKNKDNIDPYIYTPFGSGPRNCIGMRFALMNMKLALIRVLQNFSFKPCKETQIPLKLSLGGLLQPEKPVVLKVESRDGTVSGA
Description: as §2

[7] = target: T5, CYP2C19 (Homo sapiens, UniProt P33261); assay: as above; assay type: in vitro ADME
T5 construct: from tissue; host or cells: human liver microsomes
T5 sequence (P33261 whole entry): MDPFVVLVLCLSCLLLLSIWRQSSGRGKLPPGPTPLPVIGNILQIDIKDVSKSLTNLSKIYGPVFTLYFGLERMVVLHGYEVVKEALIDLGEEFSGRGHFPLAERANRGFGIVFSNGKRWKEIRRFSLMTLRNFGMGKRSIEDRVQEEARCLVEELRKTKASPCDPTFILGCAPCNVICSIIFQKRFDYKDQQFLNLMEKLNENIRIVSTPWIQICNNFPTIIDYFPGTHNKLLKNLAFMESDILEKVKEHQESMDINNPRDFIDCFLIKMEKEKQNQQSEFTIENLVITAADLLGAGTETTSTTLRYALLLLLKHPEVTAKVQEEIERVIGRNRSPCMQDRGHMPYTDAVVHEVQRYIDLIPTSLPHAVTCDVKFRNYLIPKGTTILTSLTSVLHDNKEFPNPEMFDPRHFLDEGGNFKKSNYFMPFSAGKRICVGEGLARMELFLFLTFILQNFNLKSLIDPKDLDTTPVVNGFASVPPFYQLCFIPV
Description: as §2

[8] = Microsomal metabolism stability, rat; assay type: in vitro ADME; conditions: rat liver microsomes 0.5 mg/mL, 1 μM, NADPH, 37° C.
Description: as §1

COCCCOc1cc2c(cc1OC)-c1cc(=O)c(C(=O)O)cn1[C@H](C(C)(C)C)CO2 [Embodiment 6]
remaining ratio at T=60 min [1]: 102.5%
Log HBsAg (IU/mL) (Ave. value) ([2]; dosing time day 1, 30 mg/kg QD gavage): 3.86 IU/mL
Log HBsAg (IU/mL) (Ave. value) ([2]; dosing time day 3, 30 mg/kg QD gavage): 4.09 IU/mL
Log HBsAg (IU/mL) (Ave. value) ([2]; dosing time day 5, 30 mg/kg QD gavage): 3.27 IU/mL
Log HBsAg (IU/mL) (Ave. value) ([2]; dosing time day 7, 30 mg/kg QD gavage): 1.07 IU/mL
IC50 [3]: > 50 µM
IC50 [4]: > 50 µM
IC50 [5]: > 50 µM
IC50 [6]: > 50 µM
IC50 [7]: > 50 µM
remaining ratio at T=60 min [8]: 113.0%

From patent US20200197409A1, “HEPATITIS B VIRUS SURFACE ANTIGEN INHIBITOR” (FUJIAN COSUNTER PHARMACEUTICAL CO., LTD., priority 2017, published 2020)
